Experiments:
Test in all cases: Test E preemergence
Assay type in all cases: in vivo
Settings in all cases: scale 0 to 100
[1] = system: dayflower, VA (Virginia dayflower, Commelina virginica)
In short: (§1)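 Seeds sown in silt loam treated preemergence, or plants 2 to 18 cm tall in peat-based potting medium treated postemergence, with test chemical in a non-phytotoxic solvent mixture containing surfactant. Kept in greenhouse 14 to 21 d, then visually rated against controls on a 0–100 scale (0 no effect, 100 complete control).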

corn (Zea mays) = system: corn (Zea mays)
In short: as §1

Kochia (Kochia scoparia) = system: Kochia (Kochia scoparia)
In short: as §1

[2] = system: goosegrass (Eleusine indica)
In short: as §1

[3] = system: crabgrass, Brazil (Brazilian crabgrass, Digitaria horizontalis)
In short: as §1

[4] = system: barnyardgrass (Echinochloa crus-galli)
In short: as §1

[5] = system: sandbur (southern sandbur, Cenchrus echinatus)
In short: as §1

[6] = system: johnsongrass (Sorghum halepense)
In short: as §1

[7] = system: surinam grass (Brachiaria decumbens)
In short: as §1

[8] = system: morningglory (Ipomoea coccinea)
In short: as §1

[9] = system: ryegrass, Italian (Italian ryegrass, Lolium multiflorum)
In short: as §1

[10] = system: poinsettia, wild (wild poinsettia, Euphorbia heterophylla)
In short: as §1

[11] = system: beggarticks (hairy beggarticks, Bidens pilosa)
In short: as §1

[12] = system: velvetleaf (Abutilon theophrasti)
In short: as §1

[13] = system: lambsquarters (Chenopodium album)
In short: as §1

[14] = system: crabgrass, large (large crabgrass, Digitaria sangumnalis)
In short: as §1

[15] = system: foxtail, green (green foxtail, Setaria viridis)
In short: as §1

[16] = system: waterhemp (common waterhemp, Amaranthus rudis)
In short: as §1

[17] = system: arrowleaf Sida (Sida rhombifolia)
In short: as §1

[18] = system: horseweed (Conyza canadensis)
In short: as §1

soybean (Glycine max) = system: soybean (Glycine max)
In short: as §1

CN1CC(c2cccc(OC(F)(F)C(F)F)c2)C(C(=O)Nc2cccc(F)c2F)C1=O (stereo not drawn) [Compound 392]
Plant response rating: Dayflower, VA ([1]; 31 g ai/ha): 0 | Plant response rating: Dayflower, VA ([1]; 62 g ai/ha): 0 | Plant response rating: Dayflower, VA ([1]; 125 g ai/ha): 0 | Plant response rating: Dayflower, VA ([1]; 250 g ai/ha): 35 | Plant response rating: Corn (corn (Zea mays); 31 g ai/ha): 0 | Plant response rating: Corn (corn (Zea mays); 62 g ai/ha): 15 | Plant response rating: Corn (corn (Zea mays); 125 g ai/ha): 50 | Plant response rating: Corn (corn (Zea mays); 250 g ai/ha): 70 | Plant response rating: Kochia (Kochia (Kochia scoparia); 31 g ai/ha): 85 | Plant response rating: Kochia (Kochia (Kochia scoparia); 62 g ai/ha): 90 | Plant response rating: Kochia (Kochia (Kochia scoparia); 125 g ai/ha): 80 | Plant response rating: Kochia (Kochia (Kochia scoparia); 250 g ai/ha): 90 | Plant response rating: Goosegrass ([2]; 31 g ai/ha): 85 | Plant response rating: Goosegrass ([2]; 62 g ai/ha): 90 | Plant response rating: Goosegrass ([2]; 125 g ai/ha): 95 | Plant response rating: Goosegrass ([2]; 250 g ai/ha): 95 | Plant response rating: Crabgrass, Brazil ([3]; 31 g ai/ha): 98 | Plant response rating: Crabgrass, Brazil ([3]; 62 g ai/ha): 98 | Plant response rating: Crabgrass, Brazil ([3]; 125 g ai/ha): 98 | Plant response rating: Crabgrass, Brazil ([3]; 250 g ai/ha): 98 | Plant response rating: Barnyardgrass ([4]; 31 g ai/ha): 85 | Plant response rating: Barnyardgrass ([4]; 62 g ai/ha): 70 | Plant response rating: Barnyardgrass ([4]; 125 g ai/ha): 90 | Plant response rating: Barnyardgrass ([4]; 250 g ai/ha): 95 | Plant response rating: Sandbur ([5]; 31 g ai/ha): 0 | Plant response rating: Sandbur ([5]; 62 g ai/ha): 60 | Plant response rating: Sandbur ([5]; 125 g ai/ha): 60 | Plant response rating: Sandbur ([5]; 250 g ai/ha): 90 | Plant response rating: Johnsongrass ([6]; 31 g ai/ha): 25 | Plant response rating: Johnsongrass ([6]; 62 g ai/ha): 30 | Plant response rating: Johnsongrass ([6]; 125 g ai/ha): 50 | Plant response rating: Johnsongrass ([6]; 250 g ai/ha): 95 | Plant response rating: Surinam Grass ([7]; 31 g ai/ha): 0 | Plant response rating: Surinam Grass ([7]; 62 g ai/ha): 0 | Plant response rating: Surinam Grass ([7]; 125 g ai/ha): 15 | Plant response rating: Surinam Grass ([7]; 250 g ai/ha): 30 | Plant response rating: Morningglory ([8]; 31 g ai/ha): 0 | Plant response rating: Morningglory ([8]; 62 g ai/ha): 0 | Plant response rating: Morningglory ([8]; 125 g ai/ha): 0 | Plant response rating: Morningglory ([8]; 250 g ai/ha): 0 | Plant response rating: Ryegrass, Italian ([9]; 31 g ai/ha): 0 | Plant response rating: Ryegrass, Italian ([9]; 62 g ai/ha): 10 | Plant response rating: Ryegrass, Italian ([9]; 125 g ai/ha): 60 | Plant response rating: Ryegrass, Italian ([9]; 250 g ai/ha): 70 | Plant response rating: Poinsettia, Wild ([10]; 31 g ai/ha): 0 | Plant response rating: Poinsettia, Wild ([10]; 62 g ai/ha): 0 | Plant response rating: Poinsettia, Wild ([10]; 125 g ai/ha): 35 | Plant response rating: Poinsettia, Wild ([10]; 250 g ai/ha): 20 | Plant response rating: Beggarticks ([11]; 31 g ai/ha): 0 | Plant response rating: Beggarticks ([11]; 62 g ai/ha): 0 | Plant response rating: Beggarticks ([11]; 125 g ai/ha): 0 | Plant response rating: Beggarticks ([11]; 250 g ai/ha): 0 | Plant response rating: Velvetleaf ([12]; 31 g ai/ha): 0 | Plant response rating: Velvetleaf ([12]; 62 g ai/ha): 20 | Plant response rating: Velvetleaf ([12]; 125 g ai/ha): 50 | Plant response rating: Velvetleaf ([12]; 250 g ai/ha): 75 | Plant response rating: Lambsquarters ([13]; 31 g ai/ha): 75 | Plant response rating: Lambsquarters ([13]; 62 g ai/ha): 75 | Plant response rating: Lambsquarters ([13]; 125 g ai/ha): 98 | Plant response rating: Lambsquarters ([13]; 250 g ai/ha): 100 | Plant response rating: Crabgrass, Large ([14]; 31 g ai/ha): 90 | Plant response rating: Crabgrass, Large ([14]; 62 g ai/ha): 95 | Plant response rating: Crabgrass, Large ([14]; 125 g ai/ha): 98 | Plant response rating: Crabgrass, Large ([14]; 250 g ai/ha): 98 | Plant response rating: Foxtail, Green ([15]; 31 g ai/ha): 65 | Plant response rating: Foxtail, Green ([15]; 62 g ai/ha): 90 | Plant response rating: Foxtail, Green ([15]; 125 g ai/ha): 95 | Plant response rating: Foxtail, Green ([15]; 250 g ai/ha): 98 | Plant response rating: Waterhemp ([16]; 31 g ai/ha): 35 | Plant response rating: Waterhemp ([16]; 62 g ai/ha): 80 | Plant response rating: Waterhemp ([16]; 125 g ai/ha): 70 | Plant response rating: Waterhemp ([16]; 250 g ai/ha): 90 | Plant response rating: Arrowleaf Sida ([17]; 31 g ai/ha): 0 | Plant response rating: Arrowleaf Sida ([17]; 62 g ai/ha): 15 | Plant response rating: Arrowleaf Sida ([17]; 125 g ai/ha): 65 | Plant response rating: Arrowleaf Sida ([17]; 250 g ai/ha): 80 | Plant response rating: Horseweed ([18]; 31 g ai/ha): 0 | Plant response rating: Horseweed ([18]; 62 g ai/ha): 0 | Plant response rating: Horseweed ([18]; 125 g ai/ha): 98 | Plant response rating: Horseweed ([18]; 250 g ai/ha): 100 | Plant response rating: Soybean (soybean (Glycine max); 31 g ai/ha): 0 | Plant response rating: Soybean (soybean (Glycine max); 62 g ai/ha): 0 | Plant response rating: Soybean (soybean (Glycine max); 125 g ai/ha): 20 | Plant response rating: Soybean (soybean (Glycine max); 250 g ai/ha): 25

Source: patent US12077503B2, “Substituted cyclic amides and their use as herbicides” (FMC CORPORATION, priority 2015, dated 2024)
